The test system of data set [1] is TSPO. In words: Competition binding assay against ^3H-PK11195 in human brain homogenate (HAB, MAB, LAB). Conditions: for LAB:HAB affinity ratio: rs6971 polymorphism; for difference between HAB and LAB in individually calculated affinity values: unpaired t-test. How it is done: (§1) All studies using human tissue were conducted in accordance with the East of Scotland Research Ethics Service (Edinburgh Brain Bank, 11/ES/0022). […] To exclude sex dependent differences in TSPO binding (Fairweather et al.), only male samples were utilized in this study. Sample tissues were homogenized in 10× w/v buffer (50 mM Tris-Base, pH 7.4, 4° C.) before centrifugation (32,000 g, 10 min, 4° C.). Tissue pellets were then resuspended in 10× w/v buffer and centrifuged again before re-suspending them in buffer (2 mL). Samples were then assessed for protein concentration using the Bio-Rad protein assay (Bio-Rad, USA), aliquoted and stored at −80° C. until use.
(§2) Competition binding assays were carried out as previously reported (Blair et al. (Med. Chem. Commun.)). […] A concentration of 8 μM was used to determine non-specific binding for each ligand. Binding was terminated with the addition of 2 mL of ice cold buffer before being immediate filtered over a Whatman GF/B filters (Whatman, UK) pre-treated with 0.3% polyethylenimine (Sigma-Aldrich, USA) using a Brandel harvester (Brandel, USA). Filter paper was then removed, placed into 2.5 mL of Optiphase HiSafe 3 (Perkin Elmer, USA) and counted 48 hours later on a Hidex 300 SL (Hidex, Finland). […] All binding assays were performed in triplicate. GraphPad Prism version 6 (GraphPad Software, USA) was used to fit all binding affinity curves. A comparison of a one-site and two-site fitting was made using the least squares algorithm and model selection was compared using an F test. The null hypothesis (that one-site fitting as more suitable) was rejected if p<0.05. The mean % SB normalized to the minimum inhibition of each group (HAB, MAB or LAB) was used to determine whether a one-site or two-site fitting was appropriate, and to subsequently calculate LAB:HAB ratio. Affinity values (Ki) were calculated by fitting individual tissue samples based on the mean group fitting.

For data set [2], the system named is TSPO. The experiment in a line: Competition binding assay against ^3H-PK11195 in human heart homogenate (HAB, MAB, LAB). Conditions: for LAB:HAB ratio: rs6971 polymorphism; for difference between HAB and LAB in individually calculated affinity values: unpaired t-test. How it is done:
as §1, §2

Data set [3] deals with TSPO (Homo sapiens, UniProt P30536). The experiment in a line: Competition binding assay against ^3H-PK11195 in human brain homogenate (HAB, MAB, LAB). Set-up: other: human brain; other: human heart. How it is done:
as §1
Competition binding assays were carried out as previously reported (Blair et al. (Med. Chem. Commun.)). […] A concentration of 8 μM was used to determine non-specific binding for each ligand. Binding was terminated with the addition of 2 mL of ice cold buffer before being immediate filtered over a Whatman GF/B filters (Whatman, UK) pre-treated with 0.3% polyethylenimine (Sigma-Aldrich, USA) using a Brandel harvester (Brandel, USA). Filter paper was then removed, placed into 2.5 mL of Optiphase HiSafe 3 (Perkin Elmer, USA) and counted 48 hours later on a Hidex 300 SL (Hidex, Finland). […] Affinity values (Ki) were calculated by fitting individual tissue samples based on the mean group fitting.

Data set [4] is described as follows: Pharmacokinetic/Pharmacodynamic study of PK11195 tissue exposure. The data set is classed as in vivo. Conditions: Sprague-Dawley, rat, rats, mean±SEM, n=3, read-out: exposure level.
The test system of data set [5] is TSPO. Conditions: literature; cited from earlier work.
The subject of data set [6] is TSPO. Conditions: literature (Ikawa et al.); cited from earlier work.
For data set [7] the following is noted: in humans; literature; cited from earlier work.

The values below come from patent US12129235B2, “TSPO binders” (The University Court of the University of Glasgow, priority 2018, dated 2024).

Read-outs that look alike come from different tables or passages of the source.

Chain of TSPO (Homo sapiens, UniProt P30536) (P30536 whole entry): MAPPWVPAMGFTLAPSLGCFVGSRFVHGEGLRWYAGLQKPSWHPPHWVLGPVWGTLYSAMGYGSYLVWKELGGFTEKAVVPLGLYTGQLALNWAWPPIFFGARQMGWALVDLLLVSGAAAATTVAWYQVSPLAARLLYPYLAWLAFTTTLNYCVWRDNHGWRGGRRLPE

Turning to `CCN(CC)C(=O)c1nc2ccccc2c(-c2ccccc2)c1CF` [AB5186], in data set [1], the “LAB:HAB affinity ratio” value is 9; the “difference between HAB and LAB in individually calculated affinity values” is “significant difference”. Also, the “LAB:HAB ratio” value in data set [2] was determined as 7.
The Ki is a measure of affinity in units of concentration, obtained from inhibition or displacement. For `CC[C@@H](C)N(C)C(=O)c1nc2ccccc2c(-c2ccccc2)c1CF` [LW223, (R)-(N-sec-Butyl)-3-fluoromethyl-N-methyl-4-phenylquinoline-2-carboxamide], in data set [1], the “LAB:HAB affinity ratio” value is 1; the “difference between HAB and LAB in individually calculated affinity values” was “no significant difference”. In addition, in data set [3], the “mean affinity relative to PK11195” value is 2 times. Besides, the Ki in data set [3] (read-out: mean affinity (Ki)) was 0.6 nM. In data set [2], the “LAB:HAB ratio” value is reported as 1; the “difference between HAB and LAB in individually calculated affinity values” is listed as “no significant difference”.
Consider `COc1ccccc1CN(C(C)=O)c1cnccc1Oc1ccccc1` [PBR28], for which, in data set [1], the “LAB:HAB affinity ratio” value was 49; the “difference between HAB and LAB in individually calculated affinity values” is “significant difference”. Further, the “LAB:HAB ratio” value in data set [2] amounted to 48.
Turning to `CCC(C)N(C)C(=O)c1cc2ccccc2c(-c2ccccc2Cl)n1` (centres unmarked) [PK11195], the “difference between HAB and LAB in individually calculated affinity values” in data set [1] and in data set [2] was “no significant difference” each time. For the same molecule, the concentration at 1 h in data set [4] (brain) was found to be 11 ± 1.99 ng/mL; in data set [4] (heart) it was 29.3 ± 3.93 ng/mL; in data set [4] (lungs), 38.9 ± 2.24 ng/mL.
With `CC[C@@H](C)N([11CH3])C(=O)c1nc(-c2ccccc2Cl)c2ccccc2n1` [^11C-ER176], in data set [5], the “LAB:HAB ratio in vitro” value is 1.3. Besides, the “LAB:HAB ratio in vivo” value in data set [6] is recorded as “around 3”.
As to `CCC(C)N(C)C(=O)c1cc2ccccc2c(-c2ccccc2Cl)n1` (centres unmarked) [^11C-PK11195], the plasma free fraction in data set [7] is given as 1-6%.
